Test results reported in patent US20260232767A1, “INTERLEUKIN-23 RECEPTOR ANTAGONIST PEPTIDES FOR USE IN THE TREATMENT OF PSORIASIS” (Janssen Pharmaceutica NV, priority 2023, published 2026).

Tested on: subjects with moderate-to-severe plaque psoriasis
Test: Safety, adverse events, Example 2 through Week 56
Assay type: in vivo, human
Conditions: through Week 56; for Subjects with 1 or more Serious adverse events: Tonsillar hypertrophy / Subjects with 1 or more Serious adverse events: Uterine leiomyoma / Subjects with 1 or more Serious adverse events: Ventricular dysfunction / Subjects with 1 or more treatment-emergent adverse events leading to discontinuation of study agent / Subjects with 1 or more Adverse events / Subjects with 1 or more Adverse events: Alanine aminotransferase increased / Subjects with 1 or more Adverse events: Arthralgia / Subjects with 1 or more Adverse events: Aspartate aminotransferase increased / Subjects with 1 or more Adverse events: Bronchitis / Subjects with 1 or more Adverse events: COVID-19 / Subjects with 1 or more Adverse events: Cough / Subjects with 1 or more Adverse events: Diarrhea / Subjects with 1 or more Adverse events: Headache / Subjects with 1 or more Adverse events: Influenza / Subjects with 1 or more Adverse events: Nasopharyngitis / Subjects with 1 or more Adverse events: Upper respiratory tract infection / Subjects with 1 or more Adverse events: Urinary tract infection / Subjects with 1 or more Serious adverse events / Subjects with 1 or more Serious adverse events: COVID-19 / Subjects with 1 or more Serious adverse events: Cerebrovascular accident / Subjects with 1 or more Serious adverse events: Coronary artery disease / Subjects with 1 or more Serious adverse events: Diverticulitis / Subjects with 1 or more Serious adverse events: Foot deformity / Subjects with 1 or more Serious adverse events: Infected cyst / Subjects with 1 or more Serious adverse events: Intervertebral disc protrusion / Subjects with 1 or more Serious adverse events: Ligament injury / Subjects with 1 or more Serious adverse events: Non-cardiac chest pain / Subjects with 1 or more Serious adverse events: Suicide attempt: number of subjects
From the text: The LTE safety analysis was based on randomized participants in Example who entered the present long-term extension study and received at least one dose of study intervention (including a partial dose) during the study period.

[1] = Placebo → 100 mg QD after crossover

CC(=O)NCCCC[C@@H]1NC(=O)[C@H](Cc2c[nH]c3c(C)cccc23)NC(=O)[C@H]([C@@H](C)O)NC(=O)[C@H](CC(N)=O)NC(=O)[C@@H](NC(C)=O)C(C)(C)SSC(C)(C)[C@@H](C(=O)N[C@@H](Cc2ccc(OCCN)cc2)C(=O)N[C@@H](Cc2ccc3ccccc3c2)C(=O)NC2(C(=O)N[C@@H](CCC(=O)O)C(=O)N[C@@H](CC(N)=O)C(=O)N[C@@H](Cc3cccnc3)C(=O)N(C)CC(N)=O)CCOCC2)NC1=O [IL-23 receptor antagonist peptide, Ac-[Pen]*-N-T-[W(7-Me)]-[Lys(Ac)]-[Pen]*-Phe[4-(2-aminoethoxy)]-[2-Nal]-[THP]-E-N-[3-Pal]-Sarc-NH2 (*[Pen]-[Pen]* formdisulfidebond)]
Subjects with 1 or more Serious adverse events: Tonsillar hypertrophy (50 mg QD): 0
Subjects with 1 or more Serious adverse events: Uterine leiomyoma (50 mg QD): 0
Subjects with 1 or more Serious adverse events: Ventricular dysfunction (50 mg QD): 0
Subjects with 1 or more treatment-emergent adverse events leading to discontinuation of study agent (50 mg QD): 2
Subjects with 1 or more Adverse events (100 mg BID): 32
Subjects with 1 or more Adverse events: Alanine aminotransferase increased (100 mg BID): 4
Subjects with 1 or more Adverse events: Arthralgia (100 mg BID): 2
Subjects with 1 or more Adverse events: Aspartate aminotransferase increased (100 mg BID): 3
Subjects with 1 or more Adverse events: Bronchitis (100 mg BID): 0
Subjects with 1 or more Adverse events: COVID-19 (100 mg BID): 7
Subjects with 1 or more Adverse events: Cough (100 mg BID): 2
Subjects with 1 or more Adverse events: Diarrhea (100 mg BID): 1
Subjects with 1 or more Adverse events: Headache (100 mg BID): 1
Subjects with 1 or more Adverse events: Influenza (100 mg BID): 1
Subjects with 1 or more Adverse events: Nasopharyngitis (100 mg BID): 5
Subjects with 1 or more Adverse events: Upper respiratory tract infection (100 mg BID): 5
Subjects with 1 or more Adverse events: Urinary tract infection (100 mg BID): 2
Subjects with 1 or more Serious adverse events (100 mg BID): 1
Subjects with 1 or more Serious adverse events: COVID-19 (100 mg BID): 0
Subjects with 1 or more Serious adverse events: Cerebrovascular accident (100 mg BID): 0
Subjects with 1 or more Serious adverse events: Coronary artery disease (100 mg BID): 0
Subjects with 1 or more Serious adverse events: Diverticulitis (100 mg BID): 0
Subjects with 1 or more Serious adverse events: Foot deformity (100 mg BID): 0
Subjects with 1 or more Serious adverse events: Infected cyst (100 mg BID): 0
Subjects with 1 or more Serious adverse events: Intervertebral disc protrusion (100 mg BID): 0
Subjects with 1 or more Serious adverse events: Ligament injury (100 mg BID): 0
Subjects with 1 or more Serious adverse events: Non-cardiac chest pain (100 mg BID): 0
Subjects with 1 or more Serious adverse events: Suicide attempt (100 mg BID): 0
Subjects with 1 or more Serious adverse events: Tonsillar hypertrophy (100 mg BID): 0
Subjects with 1 or more Serious adverse events: Uterine leiomyoma (100 mg BID): 1
Subjects with 1 or more Serious adverse events: Ventricular dysfunction (100 mg BID): 0
Subjects with 1 or more treatment-emergent adverse events leading to discontinuation of study agent (100 mg BID): 1
Subjects with 1 or more Adverse events (100 mg QD): 31
Subjects with 1 or more Adverse events: Alanine aminotransferase increased (100 mg QD): 0
Subjects with 1 or more Adverse events: Arthralgia (100 mg QD): 3
Subjects with 1 or more Adverse events: Aspartate aminotransferase increased (100 mg QD): 0
Subjects with 1 or more Adverse events: Bronchitis (100 mg QD): 0
Subjects with 1 or more Adverse events: COVID-19 (100 mg QD): 5
Subjects with 1 or more Adverse events: Cough (100 mg QD): 3
Subjects with 1 or more Adverse events: Diarrhea (100 mg QD): 1
Subjects with 1 or more Adverse events: Headache (100 mg QD): 5
Subjects with 1 or more Adverse events: Influenza (100 mg QD): 1
Subjects with 1 or more Adverse events: Nasopharyngitis (100 mg QD): 11
Subjects with 1 or more Adverse events: Upper respiratory tract infection (100 mg QD): 2
Subjects with 1 or more Adverse events: Urinary tract infection (100 mg QD): 0
Subjects with 1 or more Serious adverse events (100 mg QD): 3
Subjects with 1 or more Serious adverse events: COVID-19 (100 mg QD): 1
Subjects with 1 or more Serious adverse events: Cerebrovascular accident (100 mg QD): 0
Subjects with 1 or more Serious adverse events: Coronary artery disease (100 mg QD): 0
Subjects with 1 or more Serious adverse events: Diverticulitis (100 mg QD): 1
Subjects with 1 or more Serious adverse events: Foot deformity (100 mg QD): 0
Subjects with 1 or more Serious adverse events: Infected cyst (100 mg QD): 0
Subjects with 1 or more Serious adverse events: Intervertebral disc protrusion (100 mg QD): 1
Subjects with 1 or more Serious adverse events: Ligament injury (100 mg QD): 0
Subjects with 1 or more Serious adverse events: Non-cardiac chest pain (100 mg QD): 0
Subjects with 1 or more Serious adverse events: Suicide attempt (100 mg QD): 1
Subjects with 1 or more Serious adverse events: Tonsillar hypertrophy (100 mg QD): 0
Subjects with 1 or more Serious adverse events: Uterine leiomyoma (100 mg QD): 0
Subjects with 1 or more Serious adverse events: Ventricular dysfunction (100 mg QD): 0
Subjects with 1 or more treatment-emergent adverse events leading to discontinuation of study agent (100 mg QD): 2
Subjects with 1 or more Adverse events (Combined): 174
Subjects with 1 or more Adverse events: Alanine aminotransferase increased (Combined): 9
Subjects with 1 or more Adverse events: Arthralgia (Combined): 8
Subjects with 1 or more Adverse events: Aspartate aminotransferase increased (Combined): 7
Subjects with 1 or more Adverse events: Bronchitis (Combined): 9
Subjects with 1 or more Adverse events: COVID-19 (Combined): 35
Subjects with 1 or more Adverse events: Cough (Combined): 8
Subjects with 1 or more Adverse events: Diarrhea (Combined): 11
Subjects with 1 or more Adverse events: Headache (Combined): 12
Subjects with 1 or more Adverse events: Influenza (Combined): 7
Subjects with 1 or more Adverse events: Nasopharyngitis (Combined): 49
Subjects with 1 or more Adverse events: Upper respiratory tract infection (Combined): 24
Subjects with 1 or more Adverse events: Urinary tract infection (Combined): 8
Subjects with 1 or more Serious adverse events (Combined): 11
Subjects with 1 or more Serious adverse events: COVID-19 (Combined): 1
Subjects with 1 or more Serious adverse events: Cerebrovascular accident (Combined): 1
Subjects with 1 or more Serious adverse events: Coronary artery disease (Combined): 1
Subjects with 1 or more Serious adverse events: Diverticulitis (Combined): 1
Subjects with 1 or more Serious adverse events: Foot deformity (Combined): 1
Subjects with 1 or more Serious adverse events: Infected cyst (Combined): 1
Subjects with 1 or more Serious adverse events: Intervertebral disc protrusion (Combined): 1
Subjects with 1 or more Serious adverse events: Ligament injury (Combined): 1
Subjects with 1 or more Serious adverse events: Non-cardiac chest pain (Combined): 1
Subjects with 1 or more Serious adverse events: Suicide attempt (Combined): 1
Subjects with 1 or more Serious adverse events: Tonsillar hypertrophy (Combined): 1
Subjects with 1 or more Serious adverse events: Uterine leiomyoma (Combined): 1
Subjects with 1 or more Serious adverse events: Ventricular dysfunction (Combined): 1
Subjects with 1 or more treatment-emergent adverse events leading to discontinuation of study agent (Combined): 10
Subjects with 1 or more Adverse events [1]: 23
Subjects with 1 or more Adverse events: Alanine aminotransferase increased [1]: 2
Subjects with 1 or more Adverse events: Arthralgia [1]: 1
Subjects with 1 or more Adverse events: Aspartate aminotransferase increased [1]: 1
Subjects with 1 or more Adverse events: Bronchitis [1]: 1
Subjects with 1 or more Adverse events: COVID-19 [1]: 2
Subjects with 1 or more Adverse events: Cough [1]: 0
Subjects with 1 or more Adverse events: Diarrhea [1]: 1
Subjects with 1 or more Adverse events: Headache [1]: 0
Subjects with 1 or more Adverse events: Influenza [1]: 1
Subjects with 1 or more Adverse events: Nasopharyngitis [1]: 9
Subjects with 1 or more Adverse events: Upper respiratory tract infection [1]: 4
Subjects with 1 or more Adverse events: Urinary tract infection [1]: 2
Subjects with 1 or more Serious adverse events [1]: 1
Subjects with 1 or more Serious adverse events: COVID-19 [1]: 0
Subjects with 1 or more Serious adverse events: Cerebrovascular accident [1]: 1
Subjects with 1 or more Serious adverse events: Coronary artery disease [1]: 0
Subjects with 1 or more Serious adverse events: Diverticulitis [1]: 0
Subjects with 1 or more Serious adverse events: Foot deformity [1]: 0
Subjects with 1 or more Serious adverse events: Infected cyst [1]: 0
Subjects with 1 or more Serious adverse events: Intervertebral disc protrusion [1]: 0
Subjects with 1 or more Serious adverse events: Ligament injury [1]: 0
Subjects with 1 or more Serious adverse events: Non-cardiac chest pain [1]: 0
Subjects with 1 or more Serious adverse events: Suicide attempt [1]: 0
Subjects with 1 or more Serious adverse events: Tonsillar hypertrophy [1]: 0
Subjects with 1 or more Serious adverse events: Uterine leiomyoma [1]: 0
Subjects with 1 or more Serious adverse events: Ventricular dysfunction [1]: 0
Subjects with 1 or more treatment-emergent adverse events leading to discontinuation of study agent [1]: 0
Subjects with Abdominal distension: 0
Subjects with Abscess limb: 0
Subjects with Constipation: 0
Subjects with Gastrointestinal disorders (system organ class): (16.7%)
Subjects with Headache: (11.6%)
